Laboratory results as given in US8802723B2, “Metabolic syndrome-improving agent and medicine, supplement, functional food and food additive containing the same” (ARKRAY, Inc., priority 2005, dated 2014).

Columns and labels:
aP2 mRNA = aP2 mRNA expression in differentiated 3T3-L1 adipocytes (Light Cycler); assay type: cell-based; conditions: 3T3-L1, 7 days after differentiation induction, non-treatment control = 100, average ± standard error
Procedure: Differentiation Induction Medium (0.25 μM DEX, 0.5 mM MIX, 10 μg/mL Insulin/10% FBS/DMEM)
55 mL of FBS (fetal bovine serum (manufactured by GIBCO)) was added to 500 mL of DMEM (manufactured by SIGMA) so as to prepare 10% FBS/DMEM. To this 10% FBS/DMEM, 138.75 μL of 1 mM DEX (dexamethasone)/DMSO (manufactured by Nacalai Tesque, Inc.) and 555 μL of 10 mg/mL insulin/PBS (manufactured by SIGMA) were added. Incidentally, the insulin/PBS was obtained by adding 1N HCl to PBS in advance so as to make the solution acidic enough to allow insulin dissolution and then dissolving insulin. […]
Next, culture preadipocytes 3T-L1 were thawed, inoculated in a 100 mm dish and cultured until 3T3-L 1 cells reached about 80% confluence. […] 7 days after the initiation of the differentiation induction, mRNA was extracted using Sepasol(R)—RNA I super (manufactured by Nacalai Tesque, Inc.), and the mRNA expression amounts of 36B4, aP2 and adiponectin, which were indicators of an early period of adipocyte differentiation, were measured using Light Cycler™. Also, the medium 7 days after the differentiation induction was taken in an amount of 1 mL from each well, and the amount of adiponectin in the medium supernatant was measured using a mouse/rat adiponectin ELISA kit (trade name) (manufactured by Otsuka Pharmaceutical Co., Ltd.). […]

human PPARγ = target: T1, human PPARγ (Homo sapiens, UniProt P37231); test: PPARγ ligand activity, GAL4-hPPARγ luciferase reporter assay in CV-1 cells; assay type: cell-based; conditions: for PPARγ ligand activity: 24 h, relative to non-treatment control (DMSO) = 100, average ± standard error
T1 construct: expressed in transfected cells; host or cells: CV-1 cells (African green monkey kidney)
T1 sequence (P37231 204-505): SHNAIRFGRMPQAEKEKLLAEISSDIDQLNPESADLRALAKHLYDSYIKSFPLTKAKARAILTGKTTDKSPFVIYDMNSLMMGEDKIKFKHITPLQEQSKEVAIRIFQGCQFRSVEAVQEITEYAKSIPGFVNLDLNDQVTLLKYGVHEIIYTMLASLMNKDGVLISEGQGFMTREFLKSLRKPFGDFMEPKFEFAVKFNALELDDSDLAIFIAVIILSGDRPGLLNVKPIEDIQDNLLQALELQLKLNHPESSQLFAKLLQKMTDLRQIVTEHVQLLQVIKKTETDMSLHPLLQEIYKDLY
Procedure: CV-1 cells (cultured cells derived from kidneys of male African green monkeys) were implanted on 24-well culture plates so as to be […] and cultured at 37° C. in 5% CO2 for 24 hours. As a medium, DMEM (Dulbecco's Modified Eagle Medium; manufactured by GIBCO) containing 10% FBS (fetal bovine serum) and a 10 mg/mL penicillin streptomycin solution was used. Using the Lipofectamine system (trade name; manufactured by Invitrogen Corporation), pM-hPPARγ and p4× UASg-tk-luc were transfected. The above-noted pM-hPPARγ was a chimeric protein-expression plasmid binding GAL4 gene (amino acid sequence 1-147) and human PPARγ ligand-binding site gene (amino acid sequence 204-505), whereas the above-noted p4× UASg-tk-luc was a reporter plasmid containing four copies of a responsive element (UAS) of GAL 4 upstream of a luciferase gene. About 24 hours after the transfection, samples of aurapten at respective concentrations (0.1, 1.0, 10, 50 and 100 μM) were added to the above-described media, followed by 24 hour incubation. The above-noted samples were prepared by dissolving aurapten in dimethyl sulfoxide (DMSO). Instead of the aurapten, DMSO was added to non-treated control media. After the incubation, measurement was made using a Dual-Luciferase Reporter Gene Assay system (trade name; manufactured by Promega Corporation).
Similarly to the measurement group, as a control group, pM (a plasmid from which PPARγ ligand-binding site gene was removed) was used for measurement instead of pM-hPPARγ. For each sample, the ratio between average luminescence intensities of the measurement group and the control group (n=4) (measurement group/control group) was calculated, and an activity relative to the non-treatment control was determined as the PPARγ ligand activity of the sample.

- effect on PPARγ activity (in words) (human PPARγ; 0.1-100 μM, increased along with the concentration): improved the activity of PPARγ
- PPARγ ligand activity (human PPARγ; aurapten 0.1 μM): 128 ± 8.5
- PPARγ ligand activity (human PPARγ; aurapten 1.0 μM): 113 ± 6.9
- PPARγ ligand activity (human PPARγ; aurapten 10 μM): 146 ± 17.0
- PPARγ ligand activity (human PPARγ; aurapten 50 μM): 245 ± 56.1
- PPARγ ligand activity (human PPARγ; aurapten 100 μM): 641 ± 84.2
Structure (SMILES): CC(C)=CCC/C(C)=C/COc1ccc2ccc(=O)oc2c1 [Aurapten, aurapten]
- aP2 mRNA expression amount (ratio to 36B4) (aP2 mRNA; aurapten 1 μM): 208.2 ± 23.4
- aP2 mRNA expression amount (ratio to 36B4) (aP2 mRNA; aurapten 5 μM): 202.7 ± 19.3
